≈ marks a conversion by molar mass, not a printed value.
Tests used:
TRPV1 = target: T1, TRPV1 (Homo sapiens, UniProt Q8NER1); experiment: Manual patch clamp detection on TRPV1 channel; assay type: cell-based; conditions: HEK293, Capsaicin-induced current
T1 construct: expressed in transfected cells
Method: TRPV1 cells were cultured in a cell culture dish with a diameter of 35 mm, placed in a 37° C., 5% CO2 incubator, and passaged at a ratio of 1:5 every 48 hours. Medium formula: 90% DMEM (Invitrogen), 10% Fetal bovine serum (Gibco). 2 mM L-glutamine, 50 μg/mL Hygromycin B (Invitrogen) and 5 μg/mL Blasticidine HCl (Invitrogen). Before electrophysiological patch clamp experiments, the cell culture medium was replaced with medium containing 1 μg/mL Doxycycline for at least 16 hours to induce the expression of TRPV1.
On the day of the experiment, the cell culture medium was aspirated, the cell were rinsed once with extracellular fluid, and then 0.25% Trypsin-EDTA (Invitrogen) solution was added, and digested at room temperature for 1-2 minutes. The digestion solution was aspirated, the cell were resuspended with extracellular fluid, and transferred to the experimental dish for electrophysiological recording for further experiment. […]
HEK293 cells stably expressing TRP channels, the corresponding agonist-induced channel current was recorded by whole-cell patch clamp technique at room temperature. […] Clamp voltages and data recording were controlled and recorded by a computer using pClamp 11 software with the sampling frequency of 10 kHz and the filtering frequency of 2 kHz. […] After the current was evoked for more than 40 s and no attenuation was determined, the dosing process started. […]

[1] = Solubility of free compound Ic-1 in different solvents; assay type: physicochemical; conditions: thermodynamic from solid, room temperature
Method: The free base of the compound of formula Ic-1 was used as the starting material to obtain other salt forms. The free base of the compound of formula Ic-1 was an oily substance, and the solubility of the free base of the compound of formula Ic-1 in 11 common solvents was tested at room temperature. In the experiment, about 2 mg of compound Ic-1 oily sample was weighed into a 3-ml vial, and then the corresponding solvent was gradually added (50, 50, 200, 700 μLL) and shaken until the solution was clear. If the sample was still not dissolved after adding the solvent to 1 ml, the solvent was not added any more. The rough solubility range calculated according to the mass of the solid sample, the volume of the added solvent and the observed dissolution phenomenon was shown in Table 8.

[2] = Pharmacokinetic test in rat; assay type: in vivo; conditions: PO 10 mg/kg
Method: A certain amount of sample was weighed and dissolved in deionized water to prepare 1 mg/mL of solution. Male SD rats were used as test animals. The dose of single intravenous (IV) injection was 2 mg/kg, and the dose of oral (PO) administration was 10 mg/kg. Each group had three rats. The rats in oral group were fasted for 10-14 hours before administration, and were fed 4 hours after administration. Blood collection time points of animals were before administration, and 5 min, 15 min, 30 min, 1 h, 2 h, 4 h, 6 h, 8 h, and 24 h after administration for intravenous administration; before administration, and 15 min, 30 min, 1 h, 2 h, 4 h, 6 h, 8 h and 24 h after administration for oral administration. About 0.25 mL of blood was collected via the jugular vein from each animal, and heparin sodium was used for anticoagulation. After collecting the blood samples, the blood samples were placed on ice and centrifuged to separate the plasma (centrifugation conditions: 8000 rpm, 6 min, 4° C.). The collected plasma was stored at −80° C. before analysis. 50 μL of plasma sample was taken into 1.5 mL centrifuge tube, 250 μL of internal standard solution was added, and the same volume of methanol rather than internal standard solution was added in the blank group. […]

T1 sequence (Q8NER1 whole entry, species assumed): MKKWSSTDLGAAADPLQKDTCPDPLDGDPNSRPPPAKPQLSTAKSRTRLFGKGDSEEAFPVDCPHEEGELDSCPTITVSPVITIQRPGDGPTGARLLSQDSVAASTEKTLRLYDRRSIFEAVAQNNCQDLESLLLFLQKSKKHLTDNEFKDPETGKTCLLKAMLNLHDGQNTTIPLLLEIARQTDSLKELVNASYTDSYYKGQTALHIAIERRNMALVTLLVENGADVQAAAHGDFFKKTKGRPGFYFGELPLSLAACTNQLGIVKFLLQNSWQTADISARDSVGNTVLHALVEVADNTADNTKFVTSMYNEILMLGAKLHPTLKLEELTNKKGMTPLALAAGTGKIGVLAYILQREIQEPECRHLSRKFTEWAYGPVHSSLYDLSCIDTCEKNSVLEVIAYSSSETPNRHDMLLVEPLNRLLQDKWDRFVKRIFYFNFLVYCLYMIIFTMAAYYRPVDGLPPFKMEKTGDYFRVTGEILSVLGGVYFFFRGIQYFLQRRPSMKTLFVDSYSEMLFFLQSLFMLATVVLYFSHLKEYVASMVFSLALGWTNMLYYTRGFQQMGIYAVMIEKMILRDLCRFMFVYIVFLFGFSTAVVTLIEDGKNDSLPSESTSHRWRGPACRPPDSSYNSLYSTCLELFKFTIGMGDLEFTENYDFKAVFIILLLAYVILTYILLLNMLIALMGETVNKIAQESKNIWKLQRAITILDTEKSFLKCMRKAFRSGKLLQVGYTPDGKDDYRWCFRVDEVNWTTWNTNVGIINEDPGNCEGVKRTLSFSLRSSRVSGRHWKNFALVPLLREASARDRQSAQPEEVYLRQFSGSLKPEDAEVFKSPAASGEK

Structure (SMILES): CNCC[C@H](Oc1cccc2ccoc12)c1cccs1 [IC-1, (S)-3-(Benzofuran-7-yloxy)-N-methyl-3-(thiophen-2-yl)propan-1-amine]
- inhibition at 10 µM (TRPV1): 22.5%
- solubility ([1]; aqueous with cosolvent or surfactant or cyclodextrin, Methanol:Water (1:1)): > 38 mg/mL
- solubility ([1]; organic solvent or mixture, Acetone): > 46 mg/mL
- solubility ([1]; organic solvent or mixture, Acetonitrile): > 54 mg/mL
- solubility ([1]; organic solvent or mixture, Dimethyl sulfoxide): > 38 mg/mL
- solubility ([1]; organic solvent or mixture, Ethanol): > 42 mg/mL
- solubility ([1]; organic solvent or mixture, Ethyl acetate): > 36 mg/mL
- solubility ([1]; organic solvent or mixture, Methanol): > 38 mg/mL
- solubility ([1]; organic solvent or mixture, Methyl isobutyl ketone): > 42 mg/mL
- solubility ([1]; organic solvent or mixture, Tetrahydrofuran): > 40 mg/mL
- solubility ([1]; organic solvent or mixture, n-Heptane): 7.6 to 23 mg/mL (≈ 26.4 to 80 mM)
- solubility ([1]; Water): < 2 mg/mL

Structure (SMILES): CNCC[C@H](Oc1cccc2ccccc12)c1cccs1 [Duloxetine (S configuration), Duloxetine, reference compound]
- Tmax [2]: 50 min
